Assay results as given in ChEMBL document CHEMBL3785047, “Biological evaluation of synthetic α,β-unsaturated carbonyl based cyclohexanone derivatives as neuroprotective novel inhibitors of acetylcholinesterase, butyrylcholinesterase and amyloid-β aggregation” (Bioorg Med Chem, 2016).

Experiments:
[1] = Cytotoxicity against rat PC12 cells assessed as reduction in cell viability at 0.01 to 100 uM after 24 hrs by MTT assay; type: cell-based; conditions: pc-12, 24 h
PC-12 = test: Neuroprotective activity against amyloid beta (1 to 42)-induced cell death in rat PC12 cells assessed as cell viability at 100 uM preincubated for 24 hrs followed by amyloid beta (1 to 42) addition measured after 1 day by MTT assay relative to control; type: functional; conditions: read-out: Activity
Acetylcholinesterase = Acetylcholinesterase (Electrophorus electricus, UniProt O42275)
Acetylcholinesterase, sequence (O42275 whole entry): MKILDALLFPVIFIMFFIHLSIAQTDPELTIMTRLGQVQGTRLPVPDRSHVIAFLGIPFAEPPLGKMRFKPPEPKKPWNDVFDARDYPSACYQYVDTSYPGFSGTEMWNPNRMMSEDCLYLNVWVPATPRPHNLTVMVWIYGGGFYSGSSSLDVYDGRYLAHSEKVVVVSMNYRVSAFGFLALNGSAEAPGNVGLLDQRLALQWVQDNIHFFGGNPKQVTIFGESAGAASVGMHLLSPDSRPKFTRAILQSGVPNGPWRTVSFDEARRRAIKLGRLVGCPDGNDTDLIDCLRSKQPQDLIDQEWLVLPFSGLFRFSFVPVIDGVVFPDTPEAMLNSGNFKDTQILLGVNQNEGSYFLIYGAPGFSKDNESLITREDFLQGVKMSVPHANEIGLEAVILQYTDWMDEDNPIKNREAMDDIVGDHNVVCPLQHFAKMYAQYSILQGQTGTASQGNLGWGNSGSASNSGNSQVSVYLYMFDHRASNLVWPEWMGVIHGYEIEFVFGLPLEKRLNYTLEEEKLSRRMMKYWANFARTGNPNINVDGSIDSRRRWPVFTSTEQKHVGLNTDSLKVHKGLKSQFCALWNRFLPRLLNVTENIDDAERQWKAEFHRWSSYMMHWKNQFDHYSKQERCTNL
Description: Inhibition of electric eel AChE using acetylthiocholine iodide as substrate preincubated for 5 mins followed by substrate addition measured for 10 mins by modified Ellman's method

Cholinesterase = Cholinesterase (Equus caballus, UniProt P81908)
Cholinesterase, sequence (P81908 whole entry): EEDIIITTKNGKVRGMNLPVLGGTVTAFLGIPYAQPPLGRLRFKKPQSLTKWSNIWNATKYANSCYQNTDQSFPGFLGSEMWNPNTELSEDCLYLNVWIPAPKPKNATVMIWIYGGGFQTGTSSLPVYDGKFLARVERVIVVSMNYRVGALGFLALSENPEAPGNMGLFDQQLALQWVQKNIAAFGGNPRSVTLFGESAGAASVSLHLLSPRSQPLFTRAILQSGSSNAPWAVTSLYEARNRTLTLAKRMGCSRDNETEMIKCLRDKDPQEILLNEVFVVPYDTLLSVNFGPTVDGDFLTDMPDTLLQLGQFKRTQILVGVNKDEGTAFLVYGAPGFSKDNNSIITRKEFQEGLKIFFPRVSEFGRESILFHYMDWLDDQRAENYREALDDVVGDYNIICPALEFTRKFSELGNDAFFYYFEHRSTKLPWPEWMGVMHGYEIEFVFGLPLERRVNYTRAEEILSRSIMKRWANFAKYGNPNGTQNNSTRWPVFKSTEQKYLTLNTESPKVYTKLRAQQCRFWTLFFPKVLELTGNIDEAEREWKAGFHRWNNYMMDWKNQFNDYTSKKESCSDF
Description: Inhibition of horse serum BChE using butrylthiocholine iodide as substrate preincubated for 5 mins followed by substrate addition measured for 10 mins by modified Ellman's method

[2] = biological target: Amyloid-beta precursor protein (Homo sapiens) (UniProt P05067); test: Inhibition of amyloid beta (1-42) (unknown origin) self-induced aggregation after 2 days by thioflavin T fluorometric assay
Amyloid-beta precursor protein (Homo sapiens), sequence (P05067 whole entry): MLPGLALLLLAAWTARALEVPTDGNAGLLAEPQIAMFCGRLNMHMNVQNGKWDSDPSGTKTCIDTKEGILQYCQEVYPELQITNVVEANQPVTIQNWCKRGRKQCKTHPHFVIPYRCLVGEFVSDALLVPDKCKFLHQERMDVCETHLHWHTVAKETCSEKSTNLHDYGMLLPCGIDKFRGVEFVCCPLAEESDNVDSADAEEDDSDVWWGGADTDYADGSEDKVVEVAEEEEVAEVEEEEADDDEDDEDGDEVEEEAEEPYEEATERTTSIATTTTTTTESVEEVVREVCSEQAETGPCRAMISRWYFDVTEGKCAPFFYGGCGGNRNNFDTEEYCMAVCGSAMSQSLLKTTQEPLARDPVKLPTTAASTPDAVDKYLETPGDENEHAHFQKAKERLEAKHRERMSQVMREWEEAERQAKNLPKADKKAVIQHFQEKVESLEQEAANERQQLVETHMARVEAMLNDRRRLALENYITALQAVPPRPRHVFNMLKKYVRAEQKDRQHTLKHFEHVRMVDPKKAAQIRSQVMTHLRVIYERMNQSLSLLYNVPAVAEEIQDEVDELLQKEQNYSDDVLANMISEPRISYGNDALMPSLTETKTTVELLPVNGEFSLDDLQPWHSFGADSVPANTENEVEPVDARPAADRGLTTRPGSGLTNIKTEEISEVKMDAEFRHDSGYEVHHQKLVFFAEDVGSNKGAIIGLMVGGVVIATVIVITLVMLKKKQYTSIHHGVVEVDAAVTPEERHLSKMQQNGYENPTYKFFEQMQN

| Compound | Activity [1] | viability at 100 µM (PC-12) [%] | IC50 (Acetylcholinesterase) [µM] | IC50 (Cholinesterase) [µM] | inhibition [2] |
| --- | --- | --- | --- | --- | --- |
| COc1cccc(/C=C2\CCC/C(=C\c3cccc(OC)c3Cl)C2=O)c1Cl | Non-toxic | 58 | 22.4 | > 100 |  |
| COc1ccc(/C=C2\CC(C(C)C)C/C(=C\c3ccc(OC)c(OC)c3Cl)C2=O)c(Cl)c1OC (centres undefined) | Non-toxic | 58 | 0.92 | > 100 | Dose-dependent effect |
| COc1ccc(/C=C2\CNC/C(=C\c3ccc(OC)c(OC)c3Cl)C2=O)c(Cl)c1OC | Non-toxic | 58 | 3.7 | 16.7 |  |
| COc1cc(/C=C2\CC(C)C/C(=C\c3cc(OC)c(OC)c(OC)c3Br)C2=O)c(Br)c(OC)c1OC (centres undefined) | Non-toxic | ≤ 92 | 1.5 | 19.5 |  |
| COc1cc(/C=C2\CC(C(C)C)C/C(=C\c3cc(OC)c(OC)c(OC)c3Br)C2=O)c(Br)c(OC)c1OC (centres undefined) | Non-toxic | 58 | 0.51 | > 100 | Dose-dependent effect |
| COc1cc(/C=C2\CN(C)C/C(=C\c3cc(OC)c(OC)c(OC)c3Br)C2=O)c(Br)c(OC)c1OC | Non-toxic | ≤ 92 | 0.037 | 10.5 | Dose-dependent effect |
| COc1ccc(/C=C2\CC(C)C/C(=C\c3ccc(OC)c(OC)c3Cl)C2=O)c(Cl)c1OC (centres undefined) | Non-toxic | 58 | 2.1 | 11.2 |  |
| COc1cc(/C=C2\CCC/C(=C\c3cc(OC)c(OC)c(OC)c3Br)C2=O)c(Br)c(OC)c1OC | Non-toxic | 58 | 12.6 | > 100 | Dose-dependent effect |
| COc1ccc(/C=C2\CCC/C(=C\c3ccc(OC)c(OC)c3Cl)C2=O)c(Cl)c1OC | Non-toxic | 58 | 17.5 | > 100 |  |
| COc1cccc(/C=C2\CC(C)C/C(=C\c3cccc(OC)c3Cl)C2=O)c1Cl (centres undefined) | Non-toxic | 58 | 5.6 | 49.7 |  |
| COc1cc(/C=C2\CNC/C(=C\c3cc(OC)c(OC)c(OC)c3Br)C2=O)c(Br)c(OC)c1OC | Non-toxic | ≤ 92 | 1.9 | 68.8 |  |
| COc1cc(/C=C2\COC/C(=C\c3cc(OC)c(OC)c(OC)c3Br)C2=O)c(Br)c(OC)c1OC | Non-toxic | ≤ 92 | 1.5 | > 100 |  |
| COc1cccc(/C=C2\CNC/C(=C\c3cccc(OC)c3Cl)C2=O)c1Cl | Non-toxic | 58 | 5.2 | > 100 |  |
| COc1ccc(/C=C2\CN(C)C/C(=C\c3ccc(OC)c(OC)c3Cl)C2=O)c(Cl)c1OC | Non-toxic | ≤ 92 | 0.63 | 2.9 | Dose-dependent effect |
| COc1cc(/C=C2\CN(Cc3ccccc3)C/C(=C\c3cc(OC)c(OC)c(OC)c3Br)C2=O)c(Br)c(OC)c1OC | Non-toxic | 58 | > 100 | > 100 |  |
| COc1cccc(/C=C2\CC(C(C)C)C/C(=C\c3cccc(OC)c3Cl)C2=O)c1Cl (centres undefined) | Non-toxic | 58 | 1.3 | > 100 |  |
| COc1ccc(/C=C2\COC/C(=C\c3ccc(OC)c(OC)c3Cl)C2=O)c(Cl)c1OC | Non-toxic | 58 | 7.2 | > 100 |  |
| COc1cccc(/C=C2\CN(C)C/C(=C\c3cccc(OC)c3Cl)C2=O)c1Cl | Non-toxic | ≤ 92 | 1.2 | > 100 |  |
| COc1ccc(/C=C2\CN(Cc3ccccc3)C/C(=C\c3ccc(OC)c(OC)c3Cl)C2=O)c(Cl)c1OC | Non-toxic | 58 | > 100 | > 100 |  |
| COc1cccc(/C=C2\CN(Cc3ccccc3)C/C(=C\c3cccc(OC)c3Cl)C2=O)c1Cl | Non-toxic | 58 | > 100 | > 100 |  |
| COc1cccc(/C=C2\COC/C(=C\c3cccc(OC)c3Cl)C2=O)c1Cl | Non-toxic | 58 | 9.5 | > 100 |  |
